# Assay results published in ChEMBL document CHEMBL1944578, “Synthesis and anticonvulsant activity of novel 2,6-diketopiperazine derivatives. Part 2: Perhydropyrido[1,2-a]pyrazines” (Eur J Med Chem, 2012).
# The source made the active and inactive calls. No cut-off for these calls is given here.
# Tests used:
# Mus musculus [1] = assay: Anticonvulsant activity in Carworth farms No.1 albino mouse assessed as protection against maximum electroshock at 30 mg/kg, ip measured after 4 hrs; type: functional, organism-based; parameters: dose 30 mg/kg
# Mus musculus [2] = assay: Anticonvulsant activity in Carworth farms No.1 albino mouse assessed as protection against 6 Hz electric current-induced seizure at 100 mg/kg, ip measured after 1 hrs; type: functional, organism-based; parameters: dose 100 mg/kg
# Mus musculus [3] = assay: Neurotoxicity in Carworth farms No.1 albino mouse assessed as neurological impairment at 300 mg/kg, ip measured after 4 hrs; type: toxicity, organism-based; parameters: dose 300 mg/kg, route intraperitoneal; conditions: in vivo
# Mus musculus [4] = assay: Anticonvulsant activity in Carworth farms No.1 albino mouse assessed as protection against maximum electroshock at 100 mg/kg, ip measured after 4 hrs; type: functional, organism-based; parameters: dose 100 mg/kg
# Mus musculus [5] = assay: Neurotoxicity in Carworth farms No.1 albino mouse assessed as neurological impairment at 30 mg/kg, ip measured after 0.5 hrs; type: toxicity, organism-based; parameters: dose 30 mg/kg, route intraperitoneal; conditions: in vivo
# Mus musculus [6] = assay: Anticonvulsant activity in Carworth farms No.1 albino mouse assessed as protection against subcutaneous metrazole-induced seizures at 100 mg/kg, ip measured after 0.5 hrs; type: functional, organism-based; parameters: dose 100 mg/kg
# Mus musculus [7] = assay: Anticonvulsant activity in Carworth farms No.1 albino mouse assessed as protection against maximum electroshock at 30 mg/kg, ip measured after 0.5 hrs; type: functional, organism-based; parameters: dose 30 mg/kg
# Mus musculus [8] = assay: Anticonvulsant activity in Carworth farms No.1 albino mouse assessed as protection against subcutaneous metrazole-induced seizures at 300 mg/kg, ip measured after 0.5 hrs; type: functional, organism-based; parameters: dose 300 mg/kg
# Mus musculus [9] = assay: Neurotoxicity in Carworth farms No.1 albino mouse assessed as neurological impairment at 100 mg/kg, ip measured after 4 hrs; type: toxicity, organism-based; parameters: dose 100 mg/kg, route intraperitoneal; conditions: in vivo
# Mus musculus [10] = assay: Anticonvulsant activity in Carworth farms No.1 albino mouse assessed as protection against 6 Hz electric current-induced seizure at 100 mg/kg, ip measured after 2 hrs; type: functional, organism-based; parameters: dose 100 mg/kg
# Mus musculus [11] = assay: Neurotoxicity in Carworth farms No.1 albino mouse assessed as neurological impairment at 30 mg/kg, ip measured after 4 hrs; type: toxicity, organism-based; parameters: dose 30 mg/kg, route intraperitoneal; conditions: in vivo
# Mus musculus [12] = assay: Neurotoxicity in Carworth farms No.1 albino mouse assessed as neurological impairment at 100 mg/kg, ip measured after 1 hr; type: toxicity, organism-based; parameters: dose 100 mg/kg, route intraperitoneal; conditions: in vivo
# Mus musculus [13] = assay: Anticonvulsant activity in Carworth farms No.1 albino mouse assessed as protection against subcutaneous metrazole-induced seizures at 30 mg/kg, ip measured after 4 hrs; type: functional, organism-based; parameters: dose 30 mg/kg
# Mus musculus [14] = assay: Neurotoxicity in Carworth farms No.1 albino mouse assessed as neurological impairment at 100 mg/kg, ip measured after 2 hr; type: toxicity, organism-based; parameters: dose 100 mg/kg, route intraperitoneal; conditions: in vivo
# Mus musculus [15] = assay: Anticonvulsant activity in ip dosed Carworth farms No.1 albino mouse assessed as protection against 6 Hz electric current-induced seizure measured after 0.25 hrs; type: functional
# Mus musculus [16] = assay: Neurotoxicity in Carworth farms No.1 albino mouse assessed as neurological impairment at 100 mg/kg, ip measured after 0.25 hrs; type: toxicity, organism-based; parameters: dose 100 mg/kg, route intraperitoneal; conditions: in vivo
# Mus musculus [17] = species: Mus musculus; assay: Anticonvulsant activity in electric shock-induced Carworth farms No.1 albino mouse assessed as time of peak effect; type: functional
# Mus musculus [18] = assay: Neurotoxicity in Carworth farms No.1 albino mouse assessed as neurological impairment at 300 mg/kg, ip measured after 0.5 hrs; type: toxicity, organism-based; parameters: dose 300 mg/kg, route intraperitoneal; conditions: in vivo
# Mus musculus [19] = assay: Anticonvulsant activity in Carworth farms No.1 albino mouse assessed as protection against 6 Hz electric current-induced seizure at 100 mg/kg, ip measured after 4 hrs; type: functional, organism-based; parameters: dose 100 mg/kg
# Mus musculus [20] = assay: Anticonvulsant activity in Carworth farms No.1 albino mouse assessed as protection against maximum electroshock at 100 mg/kg, ip measured after 0.5 hrs; type: functional, organism-based; parameters: dose 100 mg/kg
# Mus musculus [21] = assay: Anticonvulsant activity in Carworth farms No.1 albino mouse assessed as protection against maximum electroshock at 300 mg/kg, ip measured after 0.5 hrs; type: functional, organism-based; parameters: dose 300 mg/kg
# Mus musculus [22] = assay: Anticonvulsant activity in Carworth farms No.1 albino mouse assessed as protection against subcutaneous metrazole-induced seizures at 100 mg/kg, ip measured after 4 hrs; type: functional, organism-based; parameters: dose 100 mg/kg
# Mus musculus [23] = assay: Anticonvulsant activity in Carworth farms No.1 albino mouse assessed as protection against 6 Hz electric current-induced seizure at 100 mg/kg, ip measured after 0.5 hrs; type: functional, organism-based; parameters: dose 100 mg/kg
# Mus musculus [24] = assay: Anticonvulsant activity in Carworth farms No.1 albino mouse assessed as protection against subcutaneous metrazole-induced seizures at 30 mg/kg, ip measured after 0.5 hrs; type: functional, organism-based; parameters: dose 30 mg/kg
# Mus musculus [25] = assay: Anticonvulsant activity in Carworth farms No.1 albino mouse assessed as protection against subcutaneous metrazole-induced seizures at 300 mg/kg, ip measured after 4 hrs; type: functional, organism-based; parameters: dose 300 mg/kg
# Mus musculus [26] = assay: Anticonvulsant activity in Carworth farms No.1 albino mouse assessed as protection against maximum electroshock at 300 mg/kg, ip measured after 4 hrs; type: functional, organism-based; parameters: dose 300 mg/kg
# Mus musculus [27] = assay: Neurotoxicity in Carworth farms No.1 albino mouse assessed as neurological impairment at 100 mg/kg, ip measured after 0.5 hrs; type: toxicity, organism-based; parameters: dose 100 mg/kg, route intraperitoneal; conditions: in vivo
# Mus musculus [28] = assay: Anticonvulsant activity in Carworth farms No.1 albino mouse assessed as protection against 6 Hz electric current-induced seizure at 100 mg/kg, ip measured after 0.25 hrs; type: functional, organism-based; parameters: dose 100 mg/kg
# Mus musculus [29] = assay: Anticonvulsant activity in Carworth farms No.1 albino mouse assessed as protection against maximum electroshock at 100 mg/kg, ip measured after 2 hrs; type: functional, organism-based; parameters: dose 100 mg/kg
# Mus musculus [30] = assay: Anticonvulsant activity in Carworth farms No.1 albino mouse assessed as protection against subcutaneous metrazole-induced seizures at 100 mg/kg, ip measured after 2 hrs; type: functional, organism-based; parameters: dose 100 mg/kg
Structure (SMILES),Activity (Mus musculus [1]),Activity (Mus musculus [3]),Activity (Mus musculus [4]),Activity (Mus musculus [5]),Activity (Mus musculus [6]),Activity (Mus musculus [7]),Activity (Mus musculus [8]),Activity (Mus musculus [9]),Activity (Mus musculus [11]),Activity (Mus musculus [13]),Activity (Mus musculus [18]),Activity (Mus musculus [20]),Activity (Mus musculus [21]),Activity (Mus musculus [22]),Activity (Mus musculus [24]),Activity (Mus musculus [25]),Activity (Mus musculus [26]),Activity (Mus musculus [27]),also measured
CCOC(=O)CN1C(=O)[C@H](c2ccccc2)N2CCCC[C@H]2C1=O,inactive,Non-toxic,inactive,Non-toxic,inactive,inactive,inactive,Non-toxic,Non-toxic,inactive,Non-toxic,inactive,inactive,inactive,inactive,inactive,inactive,Non-toxic,Activity (Mus musculus [2]): Active; Activity (Mus musculus [10]): inactive; Activity (Mus musculus [12]): Non-toxic; Activity (Mus musculus [14]): Non-toxic; ED50 (Mus musculus [15]): 55.3 mg/kg; Activity (Mus musculus [16]): Non-toxic; Time (Mus musculus [17]): 0.25 h; Activity (Mus musculus [19]): inactive; Activity (Mus musculus [23]): Active; Activity (Mus musculus [28]): Active
Cl.O=C1[C@H](c2ccccc2)N2CCCC[C@H]2C(=O)N1Cc1ccccc1,inactive,Non-toxic,inactive,Non-toxic,inactive,inactive,inactive,Non-toxic,Non-toxic,inactive,Non-toxic,inactive,inactive,inactive,inactive,inactive,Active,Non-toxic,Activity (Mus musculus [29]): Active; Activity (Mus musculus [30]): Active
